Some test systems named below: DU-145 prostate; K-562 leukemia; SNB-19 CNS; OVCAR-3 ovarian; SN12C renal; NCI-H226 lung; NCI/ADR-RES ovarian; MDA-MB-435; U251 CNS; HS 578T breast.
What all share (assay): NCI anticancer screen, dose series, 48 h

“And” between values parts separate entries of the source, which are not always exact repeats. Identical values can stand only once.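 In this assay, cells in 96-well plates receive the compound at five concentrations for 48 hours. Endpoints are linearly interpolated between the surrounding concentrations. GI50 = concentration required for 50% inhibition of growth. TGI denotes the concentration required for complete inhibition of growth.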

As to `O=C1/C(=C/c2ccc(Cl)cc2)COc2ccc(O)c(O)c21`, the GI50 with DU-145 prostate is 1.44 µM; with K-562 leukemia, 0.321 µM; in the experiment with SNB-19 CNS it was 1.43 µM; with OVCAR-3 ovarian, 0.404 µM; with SN12C renal, 0.724 µM; in the experiment with NCI-H226 lung, 1.86 µM. For the same compound, the GI50 was 1.6 µM in the experiment with NCI/ADR-RES ovarian, 0.702 µM with MDA-MB-435, 0.731 µM in the experiment on U251 CNS and 1.8 µM in the experiment with HS 578T breast. For the same compound, the TGI in the experiment with DU-145 prostate is 3.13 µM; in the experiment on K-562 leukemia, over 100 µM; with SNB-19 CNS, 2.95 µM; in the experiment on OVCAR-3 ovarian it was 1.48 µM; in the experiment on SN12C renal, 2.57 µM; with NCI-H226 lung, 5.18 µM. The TGI with NCI/ADR-RES ovarian came to 15.8 µM; in the experiment with MDA-MB-435 it was 2.63 µM; in the experiment on U251 CNS, 2.06 µM; in the experiment on HS 578T breast, 7.02 µM.
As for `CCCN(CCC)C(=O)[C@H](CC)[C@@H]1CC[C@@H](C)[C@@H]([C@H](C)[C@@H](O)[C@@H](C)C(=O)[C@H](CC)C2O[C@]3(C=C[C@@H](O)[C@]4(CC[C@@](C)([C@H]5CC[C@](O)(CC)[C@H](C)O5)O4)O3)[C@H](C)C[C@@H]2C)O1` (stereo not given in full), the GI50 was 2.05 µM in the experiment with DU-145 prostate; 2.68 µM with K-562 leukemia; 3.36 µM in the experiment with SNB-19 CNS; 1.84 µM with OVCAR-3 ovarian; 2.13 µM with SN12C renal; 1.93 µM in the experiment with NCI-H226 lung. For the same compound, the GI50 is 2.93 µM with NCI/ADR-RES ovarian, 2.96 µM in the experiment on MDA-MB-435, 2.87 µM in the experiment with U251 CNS and 2.75 µM with HS 578T breast. Further, the TGI turned out to be 4.21 µM with DU-145 prostate; 13 µM in the experiment with K-562 leukemia; 59.2 µM in the experiment with SNB-19 CNS; 4.46 µM with OVCAR-3 ovarian; 6.1 µM with SN12C renal; 5.3 µM with NCI-H226 lung. The TGI stood at 10.3 µM with NCI/ADR-RES ovarian, 9.71 µM with MDA-MB-435, 9.87 µM in the experiment on U251 CNS and 9.01 µM with HS 578T breast.
Turning to `COc1ccc2nc(C)cc(Nc3ccccc3O)c2c1`, the GI50 in the experiment on DU-145 prostate is 45.3 µM; in the experiment on K-562 leukemia, 17.8 µM; in the experiment with SNB-19 CNS, 76.5 µM; in the experiment with OVCAR-3 ovarian, 37.2 µM; with SN12C renal, 38.2 µM; in the experiment with NCI-H226 lung, 28 µM. The GI50 in the experiment with NCI/ADR-RES ovarian was 47.2 µM; with MDA-MB-435, 18.1 µM; in the experiment with U251 CNS, 17.6 µM; with HS 578T breast, 31.9 µM. Besides, the TGI in the experiment with DU-145 prostate was over 100 µM; with K-562 leukemia, 64.8 µM; in the experiment with SNB-19 CNS, over 100 µM; in the experiment with OVCAR-3 ovarian, over 100 µM; in the experiment with SN12C renal, over 100 µM; in the experiment with NCI-H226 lung, over 100 µM. The TGI in the experiment with NCI/ADR-RES ovarian was over 100 µM; with MDA-MB-435, 45.4 µM; with U251 CNS, 35.3 µM; in the experiment with HS 578T breast it was over 100 µM.
`CCOC(=O)C#Cc1c(CC(=O)OCC)nnn1[C@H]1O[C@@H](CO)[C@@H]2OC(C)(C)O[C@@H]21`: the GI50 with DU-145 prostate is 10.2 µM; with K-562 leukemia, 3 µM; with SNB-19 CNS, 33.9 µM; with OVCAR-3 ovarian, 1.75 µM; with SN12C renal, 3.06 µM; in the experiment with NCI-H226 lung, 1.79 µM. The GI50 with NCI/ADR-RES ovarian was 11.5 µM; in the experiment on MDA-MB-435, 5.4 µM; in the experiment with U251 CNS it was 14 µM; with HS 578T breast, 25.9 µM. The TGI with DU-145 prostate is 21.8 µM; in the experiment on K-562 leukemia, 11.1 µM; with SNB-19 CNS, over 100 µM; in the experiment on OVCAR-3 ovarian it was 3.22 µM; with SN12C renal, 9.01 µM; with NCI-H226 lung, 3.26 µM. Also, the TGI in the experiment on NCI/ADR-RES ovarian stood at 36.5 µM; in the experiment on MDA-MB-435 it was 18.3 µM; in the experiment with U251 CNS, 27.6 µM; with HS 578T breast, 72.2 µM.
For `Cc1ccc(S(=O)(=O)Nc2nc3ccccc3nc2Nc2ccc3nsnc3c2)cc1`, the GI50 in the experiment with DU-145 prostate was 5.04 µM and 4.45 µM; in the experiment with K-562 leukemia, 3.7 µM and 2.82 µM; in the experiment on SNB-19 CNS it was 3.29 µM and 3.54 µM; in the experiment on OVCAR-3 ovarian, 3.23 µM and 3.65 µM; in the experiment with SN12C renal, 3.1 µM and 3.04 µM; with NCI-H226 lung, 5.38 µM and 7.55 µM. Further, the GI50 is 3.2 µM and 3.52 µM in the experiment on NCI/ADR-RES ovarian; 4.09 µM and 3.15 µM in the experiment with MDA-MB-435; 3.26 µM and 3.65 µM with U251 CNS; 5.62 µM and 4.21 µM with HS 578T breast. Besides, the TGI in the experiment with DU-145 prostate was over 100 µM; with K-562 leukemia, over 100 µM; in the experiment on SNB-19 CNS it was over 100 µM; in the experiment with OVCAR-3 ovarian, 14.8 µM and > 100 µM; in the experiment on SN12C renal, 46.8 µM and > 100 µM; in the experiment with NCI-H226 lung it was over 100 µM. Besides, the TGI with NCI/ADR-RES ovarian, in the experiment with MDA-MB-435, in the experiment with U251 CNS and with HS 578T breast was over 100 µM each time.

The values above are taken from PubChem BioAssay (NCI).
